The record followed here is PubChem BioAssay (NCI).

Assay in all cases: NCI anticancer screen, dose series, 48 h
Experiment [1] has as its system SNB-19 CNS.
For experiment [2], the system named is HS 578T breast.
The subject of experiment [3] is OVCAR-4 ovarian.
Experiment [4] concerns MALME-3M melanoma.
Experiment [5] deals with DU-145 prostate.
Experiment [6] concerns A549 NSCLC.
For experiment [7], the system named is NCI/ADR-RES ovarian.
For experiment [8], the system named is OVCAR-5 ovarian.
Experiment [9] deals with A498 renal.
Experiment [10] deals with SK-MEL-28 melanoma.
Experiment [11] relates to IGROV1 ovarian.
In experiment [12] the test system is NCI-H460 lung.
The subject of experiment [13] is SK-MEL-5 melanoma.
Experiment [14] relates to SF-295 CNS.
For experiment [15], the system named is SF-268 CNS.

The structures appear in SMILES notation.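 Five compound concentrations were applied to cells in 96-well plates for 48 hours; endpoints were derived by simple linear interpolation of the resulting dose-response curve. Definition used: TGI = concentration required for complete inhibition of growth.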 Where a SMILES comes first, the peptide text is derived from it. The star is where a group is joined. Cbz = O=C(OCc1ccccc1)*; Boc = CC(C)(C)OC(=O)*; tBu = CC(C)(C)*

Turning to `CN(C)CCCN1c2ccccc2Sc2cnccc21`, the TGI in experiment [1], in [2], in [3], in [4], in experiment [5] and in [6] was more than 100 µM in each case. The TGI in experiment [7], in [8], in experiment [9], in experiment [10], in experiment [11] and in experiment [12] was more than 100 µM each time. Moreover, the TGI in experiment [13], in experiment [14] and in [15] was more than 100 µM throughout.

For the molecule `O=c1[nH]nc(Cc2ccccc2)[nH]1`, the TGI in [1], in [2], in experiment [3], in [4], in [5] and in [6] was more than 100 µM each time. Further, the TGI in [7], in [8], in [9], in experiment [10], in experiment [11] and in experiment [12] was more than 100 µM each time. Besides, the TGI in experiment [13], in experiment [14] and in experiment [15] was more than 100 µM throughout.

Turning to `Cc1ccc2c(c1)C1(C)OC(C=CC1=O)O2` (stereo unspecified), the TGI in [1] was 8.97 µM; in experiment [2], more than 26.6 µM; in [3] it was 2.29 µM; in [4] it was 1.32 µM; in [5], 8.45 µM; in experiment [6], 10.1 µM. Moreover, the TGI was 0.0653 µM in [7]; 4.46 µM in experiment [8]; 13.4 µM in [9]; 2.03 µM in experiment [10]; 8.88 µM in experiment [11]; 6.03 µM in experiment [12]. Further, the values for the TGI in [13], in experiment [14] and in experiment [15] were 2.79 µM, 11.9 µM and 10.3 µM, respectively.

Turning to `COC/C=C\[C@]1(O)CCCC[C@@H]1CC(OC)OC`, the TGI in experiment [1], in [2], in experiment [3], in experiment [4], in experiment [5] and in experiment [6] was more than 100 µM in each case. For the same molecule, the TGI in experiment [7], in experiment [8], in [9], in experiment [10], in experiment [11] and in experiment [12] was more than 100 µM throughout. The TGI in experiment [13], in experiment [14] and in experiment [15] was more than 100 µM in each case.

As for `CC(OC(C)(C)C)C(NC(=O)C(CCCCNC(=O)OC(C)(C)C)NC(=O)C(Cc1c[nH]c2ccccc12)NC(=O)C(Cc1ccccc1)NC(=O)OCc1ccccc1)C(=O)NC(Cc1ccccc1)C(=O)O` (stereo unspecified) (Cbz-FWK(Boc)T(tBu)F-OH; configuration not given here), the TGI in experiment [1] was 52.8 µM; in [2] it was 44.4 µM; in experiment [3] it was more than 100 µM; in [4], more than 100 µM; in experiment [5] it was more than 100 µM; in experiment [6] it was more than 100 µM. Besides, the TGI in [7] is more than 100 µM; in [8] it was more than 100 µM; in experiment [9] it was more than 100 µM; in experiment [10], more than 100 µM; in experiment [11] it was 98.9 µM; in [12] it was more than 100 µM. In addition, the results for the TGI in experiment [13], in [14] and in [15] were 33.9 µM, more than 100 µM and more than 100 µM, respectively.

In the case of `O=c1c2cc(S(=O)(=O)O)ccc2nc(COc2ccc(Oc3ccc(Cl)cc3Cl)cc2)n1-c1ccc(Cl)cc1Oc1c(Cl)cccc1Cl`, the TGI was more than 100 µM in [1]; 76.3 µM in [2]; more than 100 µM in experiment [3]; more than 100 µM in experiment [4]; more than 100 µM in experiment [5]; 72.1 µM in experiment [6]. The TGI in experiment [7] is 77.4 µM; in experiment [8], 60.6 µM; in [9] it was 67.3 µM; in experiment [11], more than 100 µM; in experiment [12] it was 46.5 µM; in [13], 32.1 µM. Moreover, the TGI in experiment [14] was determined as 56.6 µM; in experiment [15] it was 35.7 µM.

For `CCN(CC)CC(=O)O[C@]1(CC)C(=O)OCc2c1cc1n(c2=O)Cc2cc3ccccc3nc2-1`, the TGI in experiment [1] is 11.3 µM; in [2], more than 100 µM; in [3] it was 0.62 µM; in [4], 2.61 µM; in [5], 0.21 µM; in [6] it was 2.37 µM. Moreover, the TGI in experiment [7] turned out to be 0.165 µM; in experiment [8], 1.43 µM; in experiment [9], 0.256 µM; in experiment [10] it was 39.1 µM; in [11], 1.04 µM; in [12], 0.129 µM. The figures for the TGI in experiment [13] and in experiment [14] were 0.171 µM and 1.08 µM, respectively.

For the molecule `Cc1cccc2c(N)c3cccc(C(=O)NCC[N+](C)(C)Cc4c([N+](=O)[O-])ncn4C)c3nc12`, the TGI in experiment [1] is more than 100 µM; in experiment [2], more than 96.1 µM; in experiment [3], more than 72.5 µM; in [4], more than 100 µM; in experiment [5], more than 100 µM; in experiment [6], more than 47.9 µM. In addition, the TGI was more than 100 µM in [7]; more than 100 µM in experiment [8]; more than 100 µM in [9]; more than 100 µM in [10]; more than 100 µM in [11]; more than 88.8 µM in [13]. In addition, the TGI in experiment [14] and in [15] was more than 100 µM in each case.

With `CC1ON2CCCC2[C@H]1C(=O)N1C2CC3CCC2(CS1(=O)=O)C3(C)C` (stereo partly specified), the TGI in experiment [2], in [3], in experiment [4], in [5], in experiment [6] and in [7] was more than 100 µM each time. In addition, the TGI in experiment [8], in experiment [9], in experiment [10], in [11], in experiment [12] and in experiment [13] was more than 100 µM in each case. In addition, the TGI in [14] and in experiment [15] was more than 100 µM in each case.

With `CSC1=N/C(=C\c2ccccc2)C(=O)N1CN1CCCCC1`, the TGI was more than 100 µM in [1]; more than 100 µM in experiment [2]; 56.4 µM in experiment [3]; more than 100 µM in [4]; more than 100 µM in experiment [5]; more than 100 µM in experiment [6]. For the same molecule, the TGI in [7], in [8], in [9], in experiment [10], in [11] and in experiment [13] was more than 100 µM each time. In addition, the TGI in [14] and in experiment [15] was more than 100 µM throughout.

For the molecule `CN(C)/C=N/S(=O)(=O)c1nn2c(C=O)c(-c3ccc(Cl)cc3)nc2s1`, the TGI in [1] is 28.8 µM; in experiment [2] it was more than 22 µM; in experiment [3] it was 3.58 µM; in experiment [4] it was 3.2 µM; in [5], 6.02 µM; in experiment [6], 20.2 µM. Also, the TGI in experiment [7] is 10.6 µM; in experiment [8], 5.55 µM; in experiment [9], 30.3 µM; in [10], 3.33 µM; in experiment [12] it was 22.4 µM; in experiment [13], 2.98 µM. Besides, the figures for the TGI in experiment [14] and in experiment [15] were 28.2 µM and 12.6 µM, respectively.

For `COC(=O)C1=C(C(=O)OC)c2cc(OC)ccc2C(C(=S)N(C)C)S1` (stereo unspecified), the TGI in experiment [1], in experiment [2], in experiment [3], in [4], in experiment [5] and in [6] was more than 100 µM throughout. Also, the TGI in [7], in [8], in experiment [9], in [10], in experiment [11] and in experiment [12] was more than 100 µM each time. Moreover, the TGI in experiment [14] and in [15] was more than 100 µM each time.

For the molecule `CC1=CC(=O)N(n2c(Cc3ccccc3)n[nH]c2=O)C1=O`, the TGI in experiment [1], in [2], in experiment [3], in experiment [4], in [5] and in experiment [6] was more than 100 µM throughout. Besides, the TGI in [7], in experiment [8], in experiment [9], in [11], in experiment [12] and in [13] was more than 100 µM throughout. For the same molecule, the TGI in [14] and in experiment [15] was more than 100 µM in each case.

In the case of `COc1cc2c(cc1OC)CCc1cc(OC)c(OC)cc1CC2`, the TGI in [1], in experiment [2], in [3], in experiment [4], in experiment [5] and in [6] was more than 100 µM each time. For the same molecule, the TGI in [7], in experiment [8], in experiment [9], in experiment [10], in experiment [11] and in experiment [12] was more than 100 µM in each case. For the same molecule, the TGI in experiment [13] and in experiment [14] was more than 100 µM throughout.
